Experimental data from patent US20170306409A1, “CANCER PATIENT SELECTION FOR ADMINISTRATION OF WNT SIGNALING INHIBITORS USING RNF43 MUTATION STATUS” (NOVARTIS AG, priority 2012, published 2017).
Like-named read-outs stand apart in the source and are kept apart here.

Assays:
Assay in all cases: cell line proliferation assay (Cell Titer Glo)
Type in all cases: cell-based, human
Capan-2 = system: Capan-2
Description: (§1) The sensitivity of pancreatic cells to LGK974 treatment were tested in a cellular proliferation assay in vitro. Twenty four human pancreatic cancer cell lines were treated with or without LGK974. Cellular proliferation data was generated in 384 well format. Cells were harvested and resuspended in their appropriate growth medium at a density of 1.5×10^4 cells per mL. […] Plates were then transferred to incubators on the ACP-1 system (37° C., 5% CO2) and cells were allowed to attach overnight. […] Following compound addition, plates were returned to the incubator for 120 hours. The assay plates were read with the addition of 10 μL of 1× Cell Titer Glo (Promega G7573) according to the manufacturer's instructions. Plates were then incubated at room temperature for ten minutes and read on the integrated Perkin Elmer Viewlux (2 second exposure, 2× bin, high sensitivity). The raw data was normalized using the DMSO control wells within each plate and the curve fitting for IC50 determination was performed. Cell growth was measured five days later with Cell Titer Glo (Promega). […] As shown in TABLE 4 and Example 4, all four cell lines harbor RNF43 loss-of-function (LOF) mutations

SU8686 = system: SU8686
Description: as §1

TCC-PAN2 = settings: for IC50: Cell Titer Glo, read-out: LGK974 IC50s in cell line proliferation assay
Description: as §1

PK-1 = system: PK-1
Description: as §1

SUIT-2 = system: SUIT-2
Description: as §1

PA-TU-8902 = system: PA-TU-8902
Description: as §1

KP-1NL = system: KP-1NL
Description: as §1

BXPC3 = system: BXPC3
Description: as §1

HUP-T3 = system: HUP-T3
Description: as §1

PK-59 = system: PK-59
Description: as §1

KP-3 = system: KP-3
Description: as §1

Panc 10.05 = system: Panc 10.05
Description: as §1

YAPC = system: YAPC
Description: as §1

PA-TU-8988S = system: PA-TU-8988S
Description: as §1

Panc1 = system: Panc1
Description: as §1

KP-1N = system: KP-1N
Description: as §1

SW1990 = system: SW1990
Description: as §1

PA-TU-8988T = system: PA-TU-8988T
Description: as §1

[1] = Homo sapiens, 120 hours, Cell Titer Glo, read-out: LGK974 IC50s in cell line proliferation assay

With `Cc1cc(-c2ncc(CC(=O)Nc3ccc(-c4cnccn4)cn3)cc2C)ccn1` [LGK974, 2-[5-methyl-6-(2-methylpyridin-4-yl)pyridin-3-yl]-N-[5-(pyrazin-2-yl)pyridin-2-yl]acetamide] the “Inhibition fold change (1-Treated/Control)” value (Capan-2) was 0.40, the IC50 (Capan-2; [1]) was 1.8 nM and the “Inhibition fold change (1-Treated/Control)” value (SU8686) was 0.03. For the same molecule, the IC50 (SU8686; Homo sapiens, SU.86.86, 120 hours, Cell Titer Glo, read-out: LGK974 IC50s in cell line proliferation assay) was over 2000 nM, the “Inhibition fold change (1-Treated/Control)” value (TCC-PAN2) was 0.02 and the IC50 (TCC-PAN2; 120 hours) was over 2000 nM. The IC50 (TCC-PAN2; Homo sapiens, 120 h) was over 1700 nM, the “Inhibition fold change (1-Treated/Control)” value (PK-1) was 0.00 and the IC50 (PK-1; [1]) was over 2000 nM. For the same molecule, the “Inhibition fold change (1-Treated/Control)” value (SUIT-2) was 0.00, the IC50 (SUIT-2; [1]) was over 2000 nM and the “Inhibition fold change (1-Treated/Control)” value (PA-TU-8902) was 0.02. The IC50 (PA-TU-8902; Homo sapiens, PaTu 8902, 120 hours, Cell Titer Glo, read-out: LGK974 IC50s in cell line proliferation assay) was over 2000 nM, the “Inhibition fold change (1-Treated/Control)” value (KP-1NL) was 0.00 and the IC50 (KP-1NL; [1]) was over 2000 nM. For the same molecule, the “Inhibition fold change (1-Treated/Control)” value (BXPC3; BxPC3) was 0.01, the IC50 (BXPC3; Homo sapiens, BXPC-3, BXPC3, 120 hours, Cell Titer Glo, read-out: LGK974 IC50s in cell line proliferation assay) was over 2000 nM and the “Inhibition fold change (1-Treated/Control)” value (HUP-T3) was 0.07. For the same molecule, the IC50 (HUP-T3; [1]) was over 2000 nM, the “Inhibition fold change (1-Treated/Control)” value (PK-59) was 0.06 and the IC50 (PK-59; [1]) was over 2000 nM. For the same molecule, the “Inhibition fold change (1-Treated/Control)” value (KP-3) was 0.02, the IC50 (KP-3; [1]) was over 2000 nM and the IC50 (Panc 10.05; Homo sapiens, Panc1005, Panc 10.05, 120 hours, Cell Titer Glo, read-out: LGK974 IC50s in cell line proliferation assay) was over 2000 nM. The “Inhibition fold change (1-Treated/Control)” value (Panc 10.05; Panc10.05) was 0.02, the “Inhibition fold change (1-Treated/Control)” value (YAPC) was 0.20 and the IC50 (YAPC; [1]) was over 2000 nM. For the same molecule, the “Inhibition fold change (1-Treated/Control)” value (PA-TU-8988S) was 0.40, the IC50 (PA-TU-8988S; Homo sapiens, PaTuÂ 8988s, 120 hours, Cell Titer Glo, read-out: LGK974 IC50s in cell line proliferation assay) was 11.6 nM and the “Inhibition fold change (1-Treated/Control)” value (Panc1) was 0.00. For the same molecule, the IC50 (Panc1; Homo sapiens, PANC-1, 120 hours, Cell Titer Glo, read-out: LGK974 IC50s in cell line proliferation assay) was over 2000 nM, the “Inhibition fold change (1-Treated/Control)” value (KP-1N) was 0.01 and the IC50 (KP-1N; [1]) was over 2000 nM. The “Inhibition fold change (1-Treated/Control)” value (SW1990) was 0.03, the IC50 (SW1990; [1]) was over 2000 nM and the “Inhibition fold change (1-Treated/Control)” value (PA-TU-8988T) was 0.00. The IC50 (PA-TU-8988T; Homo sapiens, PaTu 8988t, 120 hours, Cell Titer Glo, read-out: LGK974 IC50s in cell line proliferation assay) was over 2000 nM.
